Reference: US9353072B2, “Antimicrobial substituted thiazoles and methods of use” (Purdue Research Foundation, priority 2012, dated 2016)
Like-named read-outs stand apart in the source and are kept apart here.

How the values were obtained:
[1] = tested on: MRSA ATCC 700699 (NRS1, VISA); assay: MIC/MBC broth microdilution, NRS1 (ATCC 700699); assay type: cell-based; conditions: Staphylococcus aureus
Procedure: (§1) Determination of minimum inhibitory concentration (MIC). The MICs of the lead thiazole compound (compound 1a) and nine derivatives tested against all 18 MRSA strains were determined, in triplicate samples, using the broth microdilution method in accordance with the recommendations contained in the CLSI guidelines.

NRS119 = assay: MIC/MBC broth microdilution, NRS119; assay type: cell-based; conditions: Staphylococcus aureus
Procedure: as §1

VISA HIP07256 (NRS19) = assay: MIC/MBC broth microdilution, NRS19 (VISA HIP07256); assay type: cell-based; conditions: Staphylococcus aureus
Procedure: as §1

VRSA (VRS10) = assay: MIC/MBC broth microdilution, VRSA (VRS10); assay type: cell-based, Staphylococcus aureus; conditions: Staphylococcus aureus, VRSA; for MBC: read-out: Minimum Bactericidal Concentration; for MIC: read-out: Minimum Inhibitory Concentration
Procedure: as §1

NRS194 = assay: MIC/MBC broth microdilution, NRS194; assay type: cell-based; conditions: Staphylococcus aureus
Procedure: as §1

MRSA NRS384 (USA300) = assay: MIC/MBC broth microdilution, NRS384 (USA300); assay type: cell-based; conditions: Staphylococcus aureus
Procedure: as §1

VISA LIM 3 (NRS37) = assay: MIC/MBC broth microdilution, NRS37 (VISA LIM 3); assay type: cell-based; conditions: Staphylococcus aureus
Procedure: as §1

MRSA USA500 (NRS385) = assay: MIC/MBC broth microdilution, NRS385 (USA500); assay type: cell-based; conditions: Staphylococcus aureus
Procedure: as §1

MRSA ATCC 43300 = assay: MIC/MBC broth microdilution, MRSA ATCC 43300; assay type: cell-based, Staphylococcus aureus; conditions: Staphylococcus aureus
Procedure: as §1

NRS107 = assay: MIC/MBC broth microdilution, NRS107; assay type: cell-based; conditions: Staphylococcus aureus
Procedure: as §1

MRSA USA400 (NRS123) = assay: MIC/MBC broth microdilution, NRS123 (USA400); assay type: cell-based; conditions: Staphylococcus aureus
Procedure: as §1

MRSA USA200 = assay: MIC broth microdilution, MRSA USA200; assay type: cell-based; conditions: Staphylococcus aureus, read-out: Minimum Inhibitory Concentration
Procedure: as §1

MRSA USA100 = assay: MIC broth microdilution, MRSA USA100; assay type: cell-based; conditions: Staphylococcus aureus, read-out: Minimum Inhibitory Concentration
Procedure: as §1

MRSA (USA300) = assay: Time-kill assay; assay type: cell-based, Staphylococcus aureus; conditions: 3.0×MIC; MRSA (USA300)
Procedure: Time-kill assay. […] Viable CFU/mL was determined by serial dilution and plating on trypticase soy agar (TSA) (Becton, Dickinson and Company, Sparks, Md., USA) plates after 0, 2, 4, 6, 8, 10, and 12 hours of incubation at 37° C. to identify the time required to reduce the bacterial cell count by 3-log10.

[2] = read-out: Minimum Bactericidal Concentration
[3] = read-out: Minimum Inhibitory Concentration
[4] = NRS 119 / VISA, read-out: Minimum Bactericidal Concentration
[5] = NRS 119 / VISA, read-out: Minimum Inhibitory Concentration

C/C(=N\NC(=N)N)c1sc(-c2cccc(F)c2)nc1C [Compound M16, (E)-2-(1-(2-(3-fluorophenyl)-4-methylthiazol-5-yl)ethylidene)hydrazinecarboximidamide]
128 µM: MBC [1] | MIC ([1]; 20 h) | MBC (NRS119; NRS119) | MIC (NRS119; NRS119) | MBC (VISA HIP07256 (NRS19)) | MIC (VISA HIP07256 (NRS19)) | MBC (VRSA (VRS10)) | MBC (NRS194) | MIC (NRS194) | MBC (MRSA NRS384 (USA300)) | MIC (MRSA NRS384 (USA300)) | MBC (VISA LIM 3 (NRS37)) | MIC (VISA LIM 3 (NRS37)) | MBC (MRSA USA500 (NRS385)) | MIC (MRSA USA500 (NRS385)) | MBC (MRSA ATCC 43300) | MIC (MRSA ATCC 43300) | MBC (NRS107) | MIC (NRS107) | MBC (MRSA USA400 (NRS123)) | MIC (MRSA USA400 (NRS123))
32 µM: MIC [1, 3] | MIC (VRSA (VRS10)) | MIC (MRSA ATCC 43300; 20 h) | MIC (MRSA ATCC 43300; [3])
64 µM: MBC [1, 2] | MBC (NRS119; [4]) | MIC (NRS119; [5]) | MBC (MRSA ATCC 43300; [2])

CCCCCCCC#Cc1ccc(-c2nc(C)c(/C(C)=N/NC(=N)N)s2)cc1 [Compound M17, (E)-2-(1-(4-methyl-2-(4-(non-1-yn-1-yl)phenyl)thiazol-5-yl)ethylidene) hydrazinecarboximidamide]
32 µM: MBC [1, 2] | MIC (NRS119; [5]) | MIC (VRSA (VRS10)) | MIC (MRSA ATCC 43300; 20 h) | MIC (MRSA ATCC 43300; [3])
64 µM: MBC (NRS119; [4]) | MBC (VRSA (VRS10)) | MBC (MRSA ATCC 43300; [2])
16 µM: MIC [1, 3]

CCCCc1ccc(-c2nc(C)c(/C(N)=N\O)s2)cc1 [Compound R7, (E)-2-(4-butylphenyl)-N′-hydroxy-4-methylthiazole-5-carboximidamide]
> 128 µM: MIC ([1]; Table 8, NRS1 (VISA), triplicates, 20 hours, read-out: MIC) | MIC (NRS119; Table 8, NRS119, read-out: MIC) | MIC (VISA HIP07256 (NRS19); Table 8, NRS19 (VISA), read-out: MIC) | MIC (NRS194; Table 8, read-out: MIC) | MIC (MRSA NRS384 (USA300); Table 5, MRSA NRS384 (USA300), 128 μM down to 1.0 μM, 37° C., 19 hours, read-out: Minimum Inhibitory Concentration) | MIC (MRSA NRS384 (USA300); Table 8, NRS384, read-out: MIC) | MIC (VISA LIM 3 (NRS37); Table 8, NRS37 (VISA), read-out: MIC) | MIC (MRSA USA500 (NRS385); Table 8, NRS385, read-out: MIC) | MIC (MRSA ATCC 43300; Table 8, ATCC 43300, read-out: MIC) | MIC (NRS107; Table 8, read-out: MIC) | MIC (MRSA USA400 (NRS123); Table 8, NRS123, read-out: MIC)

CN[C@H](CC(C)C)C(=O)N[C@H]1C(=O)N[C@@H](CC(N)=O)C(=O)N[C@H]2C(=O)N[C@H]3C(=O)N[C@H](C(=O)N[C@H](C(=O)O)c4cc(O)cc(O)c4-c4cc3ccc4O)[C@H](O)c3ccc(c(Cl)c3)Oc3cc2cc(c3O[C@@H]2O[C@H](CO)[C@@H](O)[C@H](O)[C@H]2O[C@H]2C[C@](C)(N)[C@H](O)[C@H](C)O2)Oc2ccc(cc2Cl)[C@H]1O [Vancomycin, reference compound]
0.4 µg/mL: MIC (MRSA USA200)
> 12 hours: time to reduce the number of CFU by 3-log10 (MRSA (USA300))
2 µM: MBC [1] | MBC (VISA LIM 3 (NRS37))
< 1 µM: MBC (NRS119; NRS119) | MIC (NRS119; NRS119) | MIC (NRS119; [5]) | MBC (VISA HIP07256 (NRS19)) | MIC (VISA HIP07256 (NRS19)) | MIC (MRSA ATCC 43300; [3]) | MBC (NRS107) | MIC (NRS107)
1.4 µg/mL: MIC (NRS119; NRS119, read-out: Minimum Inhibitory Concentration) | MIC (MRSA USA100)
0.5 µM: MBC (NRS194) | MIC (NRS194) | MBC (MRSA NRS384 (USA300)) | MIC (MRSA NRS384 (USA300)) | MBC (MRSA USA500 (NRS385)) | MIC (MRSA USA500 (NRS385)) | MBC (MRSA ATCC 43300) | MIC (MRSA ATCC 43300) | MBC (MRSA USA400 (NRS123)) | MIC (MRSA USA400 (NRS123))
